Experimental findings from patent publication US20080248511A1, “METHODS TO QUENCH LIGHT FROM OPTICAL REACTIONS” (priority 2007, published 2008) are described below.

One test has as its target firefly luciferase (Photinus pyralis, UniProt P08659). The experiment in a line: Non-detergent compound screen, firefly luciferase (Example 6). The note with it: 0.5% Tergitol NP-9, 0.03% BDDABr; for remaining activity at 23 µM: inhibitor 23 μM; for remaining activity at 23 µM / remaining activity at 153 µM / remaining activity at 1000 µM / remaining activity at 10 µM / remaining activity at 100 µM: read-out: Retained Firefly Luciferase Value (%); for remaining activity at 153 µM: inhibitor 153 μM. The test is classed as biochemical. The procedure:
(§1) Each compound was diluted into 200 mM MOPS pH 6.7, 4 μM MgSO4, 1 mM CDTA, 0.5% Tergitol NP-9, 0.05% Mazu-DF-204, 0.03% BDDABr, 30 mM thiourea, 1 mM bis-(2-mercaptoethylsulfone) (BMS), 4 μM CoA, and 1 μM 5-fluoroluciferin. Just prior to the luciferase reaction, 0.1% Prionex® (Pentapharm) and 2.9 μM coelenterazine-h (Promega) were added to each solution.
(§2) The firefly luciferase and Renilla luciferase enzymes were diluted as described in Examples 3 and 5. The luciferase reactions were initiated by adding 50 μl of the firefly luciferase and Renilla luciferase enzyme solution to 50 μl of reagent solution. The reactions were performed as described above. The retained Renilla and firefly luciferase-mediated luminescence and selectivity values for each inhibitor tested are listed in Table 6.

The next test addresses T1, Renilla luciferase (Renilla reniformis, UniProt P27652).
T1 sequence (P27652 1-311): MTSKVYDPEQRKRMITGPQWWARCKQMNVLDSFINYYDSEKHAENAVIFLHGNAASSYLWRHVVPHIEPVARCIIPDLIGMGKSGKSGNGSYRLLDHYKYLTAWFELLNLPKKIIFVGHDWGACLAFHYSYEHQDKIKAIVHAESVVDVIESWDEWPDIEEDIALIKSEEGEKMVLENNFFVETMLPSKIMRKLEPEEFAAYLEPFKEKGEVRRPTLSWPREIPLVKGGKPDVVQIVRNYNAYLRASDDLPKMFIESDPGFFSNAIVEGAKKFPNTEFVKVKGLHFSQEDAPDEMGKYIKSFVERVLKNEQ
The experiment in a line: Non-detergent compound screen, Renilla luciferase (Example 6). It is filed as biochemical. Conditions: for remaining activity at 23 µM / remaining activity at 153 µM / remaining activity at 1000 µM / remaining activity at 10 µM / remaining activity at 100 µM / Retained Renilla Luciferase Value (%): 0.5% Tergitol NP-9, 0.03% BDDABr; for remaining activity at 23 µM / remaining activity at 153 µM / remaining activity at 1000 µM / remaining activity at 10 µM / remaining activity at 100 µM: read-out: Retained Renilla Luciferase Value (%). The procedure:
as §1, §2

Chain of firefly luciferase (P08659 whole entry): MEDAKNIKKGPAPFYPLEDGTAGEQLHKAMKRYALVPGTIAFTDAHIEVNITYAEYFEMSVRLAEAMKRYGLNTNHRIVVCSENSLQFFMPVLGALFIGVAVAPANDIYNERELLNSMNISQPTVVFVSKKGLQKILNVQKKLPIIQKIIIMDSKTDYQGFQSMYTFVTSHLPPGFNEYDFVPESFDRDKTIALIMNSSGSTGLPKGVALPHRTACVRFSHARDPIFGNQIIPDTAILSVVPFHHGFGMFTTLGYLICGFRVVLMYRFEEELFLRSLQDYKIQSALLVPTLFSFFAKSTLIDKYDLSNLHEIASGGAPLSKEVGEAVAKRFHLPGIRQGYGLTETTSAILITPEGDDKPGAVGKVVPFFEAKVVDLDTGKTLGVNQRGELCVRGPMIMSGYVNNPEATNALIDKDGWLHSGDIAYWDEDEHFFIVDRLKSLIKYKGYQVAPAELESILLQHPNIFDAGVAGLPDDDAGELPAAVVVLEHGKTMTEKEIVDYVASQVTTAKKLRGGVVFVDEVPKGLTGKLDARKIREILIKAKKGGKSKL

As to `COc1ccc(CNC(=O)/C=C/c2ccc3oc(=O)cc(C)c3c2)cc1` [Compound 3057, (E)-N-(4-methoxybenzyl)-3-(4-methyl-2-oxo-2H-chromen-6-yl)acrylamide], the remaining activity at 23 µM at firefly luciferase and on Renilla luciferase (inhibitor 23 μM) was 100% in each case. Further, the figures for the remaining activity at 153 µM at firefly luciferase and at Renilla luciferase (inhibitor 153 μM) were 98% and 93%, respectively. Also, the remaining activity at 1000 µM at firefly luciferase (inhibitor 1000 μM) was found to be 102%; at Renilla luciferase (inhibitor 1000 μM), 77.5%. For the same compound, the “inhibitor of Renilla luciferase, grade in words” value (“inhibitor of Renilla luciferase” below) at Renilla luciferase is “suitable inhibitors of Renilla luciferase”. In addition, the figures for the “Selectivity Value” on Renilla luciferase (inhibitor 23 μM), on Renilla luciferase (inhibitor 153 μM) and on Renilla luciferase (inhibitor 1000 μM) were 1, 1.1 and 1.3, respectively.
As to `C=C(C(=O)NCc1ccc(OC)cc1)c1ccc2oc(=O)cc(C)c2c1` [Compound 3058, N-(4-methoxybenzyl)-2-(4-methyl-2-oxo-2H-chromen-6-yl)acrylamide], the remaining activity at 23 µM came out at 101% on firefly luciferase and 96% at Renilla luciferase (inhibitor 23 μM). The remaining activity at 153 µM was determined as 102% at firefly luciferase and 98% on Renilla luciferase (inhibitor 153 μM). For the same compound, the remaining activity at 1000 µM was 103% at firefly luciferase (inhibitor 1000 μM) and 98.8% at Renilla luciferase (inhibitor 1000 μM). Further, the “inhibitor of Renilla luciferase” value against Renilla luciferase is given as “suitable inhibitors of Renilla luciferase”. Besides, the results for the “Selectivity Value” on Renilla luciferase (inhibitor 23 μM), at Renilla luciferase (inhibitor 153 μM) and on Renilla luciferase (inhibitor 1000 μM) were 1.05, 1.04 and 1.04, respectively.
For `COc1ccc(CNC(=O)/C(C#N)=C/CCCCCCCBr)cc1` [Compound 3059, (E)-10-bromo-2-cyano-N-(4-methoxybenzyl)dec-2-enamide], the remaining activity at 23 µM on firefly luciferase was 101%; at Renilla luciferase (inhibitor 23 μM), 99%. Further, the remaining activity at 153 µM on firefly luciferase was determined as 101%; on Renilla luciferase (inhibitor 153 μM) it was 96%. The remaining activity at 1000 µM on firefly luciferase (inhibitor 1000 μM) came to 101%; at Renilla luciferase (inhibitor 1000 μM) it was 94.6%. Further, the “inhibitor of Renilla luciferase” value against Renilla luciferase was “suitable inhibitors of Renilla luciferase”. The “Selectivity Value” at Renilla luciferase (inhibitor 23 μM) turned out to be 1.02; at Renilla luciferase (inhibitor 153 μM) it was 1.05; at Renilla luciferase (inhibitor 1000 μM), 1.07.
For the compound `COc1ccc(CNC(=O)/C=C/c2ccc3c(ccc[n+]3C)c2)cc1.[I-]` [Compound 3061, (E)-6-(3-(4-methoxybenzylamino)-3-oxoprop-1-enyl)-1-methylquinolinium iodide], the remaining activity at 10 µM on firefly luciferase (inhibitor 10 μM) was found to be 103%; at Renilla luciferase (inhibitor 10 μM) it was 96%. Moreover, the remaining activity at 100 µM at firefly luciferase (inhibitor 100 μM) was 100%; at Renilla luciferase (inhibitor 100 μM), 85%. Besides, the values for the remaining activity at 1000 µM on firefly luciferase (inhibitor 1000 μM) and at Renilla luciferase (inhibitor 1000 μM) were 82% and 36%, respectively. Further, the “inhibitor of Renilla luciferase” value against Renilla luciferase is reported as “inhibitors of Renilla luciferase”. In addition, the results for the “Selectivity Value” at Renilla luciferase (inhibitor 10 μM), on Renilla luciferase (inhibitor 100 μM) and at Renilla luciferase (inhibitor 1000 μM) were 1.1, 1.8 and 2.3, respectively.
`COc1ccc(CCNC(=O)/C=C/c2ccc3[nH]cc(CCN(C)C)c3c2)cc1` [Compound 3062, (E)-3-(3-(2-(dimethylamino)ethyl)-1H-indol-5-yl)-N-(4-methoxyphenethyl)acrylamide]: the remaining activity at 10 µM on firefly luciferase (inhibitor 10 μM) was found to be 100%; at Renilla luciferase (inhibitor 10 μM) it was 74%. Also, the values for the remaining activity at 100 µM at firefly luciferase (inhibitor 100 μM) and at Renilla luciferase (inhibitor 100 μM) were 98% and 30%, respectively. Further, the results for the remaining activity at 1000 µM at firefly luciferase (inhibitor 1000 μM) and on Renilla luciferase (inhibitor 1000 μM) were 99% and 5.1%, respectively. The “inhibitor of Renilla luciferase” value on Renilla luciferase is recorded as “excellent inhibitors of Renilla luciferase”. Besides, the “Selectivity Value” on Renilla luciferase (inhibitor 10 μM) is on record as 1.4; on Renilla luciferase (inhibitor 100 μM) it was 3.3; at Renilla luciferase (inhibitor 1000 μM), 19.4.
Consider `CN(C)CCc1c[nH]c2ccc(/C=C/C(=O)NCc3ccc([N+](=O)[O-])cc3)cc12` [Compound 3063, (E)-3-(3-(2-(dimethylamino)ethyl)-1H-indol-5-yl)-N-(4-nitrobenzyl)acrylamide], for which the remaining activity at 10 µM was determined as 102% on firefly luciferase (inhibitor 10 μM) and 63% on Renilla luciferase (inhibitor 10 μM). In addition, the values for the remaining activity at 100 µM on firefly luciferase (inhibitor 100 μM) and at Renilla luciferase (inhibitor 100 μM) were 102% and 19%, respectively. The remaining activity at 1000 µM worked out at 102% at firefly luciferase (inhibitor 1000 μM) and 3.1% on Renilla luciferase (inhibitor 1000 μM). In addition, the “inhibitor of Renilla luciferase” value against Renilla luciferase is on record as “excellent inhibitors of Renilla luciferase”. In addition, the “Selectivity Value” on Renilla luciferase (inhibitor 10 μM) was 1.6; at Renilla luciferase (inhibitor 100 μM), 5.4; at Renilla luciferase (inhibitor 1000 μM), 33.
Consider `CN(C)CCc1c[nH]c2ccc(/C=C/C(=O)N3CCOCC3)cc12` [Compound 3064, (E)-3-(3-(2-(dimethylamino)ethyl)-1H-indol-5-yl)-1-morpholinoprop-2-en-1-one], for which the remaining activity at 10 µM on firefly luciferase (inhibitor 10 μM) is 102%; on Renilla luciferase (inhibitor 10 μM), 81%. Further, the remaining activity at 100 µM stood at 101% on firefly luciferase (inhibitor 100 μM) and 35% at Renilla luciferase (inhibitor 100 μM). In addition, the results for the remaining activity at 1000 µM on firefly luciferase (inhibitor 1000 μM) and at Renilla luciferase (inhibitor 1000 μM) were 103% and 9%, respectively. For the same compound, the “inhibitor of Renilla luciferase” value against Renilla luciferase is given as “excellent inhibitors of Renilla luciferase”. Moreover, the “Selectivity Value” at Renilla luciferase (inhibitor 10 μM) is reported as 1.3; on Renilla luciferase (inhibitor 100 μM), 2.9; on Renilla luciferase (inhibitor 1000 μM), 11.4.
For `COc1ccc(CNC(=O)/C=C/c2ccc3[nH]cc(CN(C)C)c3c2)cc1` [Compound 3067, (E)-3-(3-((dimethylamino)methyl)-1H-indol-5-yl)-N-(4-methoxybenzyl)acrylamide], the remaining activity at 10 µM turned out to be 100% on firefly luciferase (inhibitor 10 μM) and 79% at Renilla luciferase (inhibitor 10 μM). Also, the results for the remaining activity at 100 µM at firefly luciferase (inhibitor 100 μM) and on Renilla luciferase (inhibitor 100 μM) were 99% and 34%, respectively. In addition, the remaining activity at 1000 µM at firefly luciferase (inhibitor 1000 μM) is 100%; at Renilla luciferase (inhibitor 1000 μM), 7%. In addition, at Renilla luciferase, the “inhibitor of Renilla luciferase” value is reported as “excellent inhibitors of Renilla luciferase”. In addition, the “Selectivity Value” on Renilla luciferase (inhibitor 10 μM) is 1.3; on Renilla luciferase (inhibitor 100 μM), 2.9; on Renilla luciferase (inhibitor 1000 μM), 14.3.
As to `COc1ccc(CNC(=O)/C=C/c2ccc3[nH]cc(CCN(C)C)c3c2)cc1` [Compound 3068, (E)-3-(3-(2-(dimethylamino)ethyl)-1H-indol-5-yl)-N-(4-methoxybenzyl)acrylamide], the remaining activity at 10 µM at firefly luciferase (inhibitor 10 μM) is 101%; at Renilla luciferase (inhibitor 10 μM), 40%. Besides, the results for the remaining activity at 100 µM on firefly luciferase (inhibitor 100 μM) and at Renilla luciferase (inhibitor 100 μM) were 102% and 10%, respectively. Further, the figures for the remaining activity at 1000 µM on firefly luciferase (inhibitor 1000 μM) and on Renilla luciferase (inhibitor 1000 μM) were 102% and 2.1%, respectively. In addition, the “inhibitor of Renilla luciferase” value on Renilla luciferase is “excellent inhibitors of Renilla luciferase”. In addition, the “Selectivity Value” at Renilla luciferase (inhibitor 10 μM) came to 2.5; on Renilla luciferase (inhibitor 100 μM), 10.2; on Renilla luciferase (inhibitor 1000 μM), 48.6.
On to `CCCCCCCC[N+](C)(C)CCc1c[nH]c2ccc(/C=C/C(=O)NCc3ccc(OC)cc3)cc12.[I-]` [Compound 3070, (E)-N-(2-(5-(3-(4-methoxybenzylamino)-3-oxoprop-1-enyl)-1H-indol-3-yl)ethyl)-N,N-dimethyloctan-1-ammonium iodide], for which the figures for the “Retained Firefly Luciferase Value (%)” value at firefly luciferase (inhibitor 10 μM), at firefly luciferase (inhibitor 100 μM) and at firefly luciferase (inhibitor 1000 μM) were 99%, 96% and 86%, respectively. For the same compound, the “inhibitor of Renilla luciferase” value at Renilla luciferase is recorded as “excellent inhibitors of Renilla luciferase”. For the same compound, the figures for the “Selectivity Value” on Renilla luciferase (inhibitor 10 μM), at Renilla luciferase (inhibitor 100 μM) and at Renilla luciferase (inhibitor 1000 μM) were 3.3, 16 and 78.2, respectively. Moreover, the “Retained Renilla Luciferase Value (%)” value came to 30% on Renilla luciferase (inhibitor 10 μM), 6% on Renilla luciferase (inhibitor 100 μM) and 1.1% at Renilla luciferase (inhibitor 1000 μM).
Turning to `COc1ccc(CNC(=O)/C=C/c2ccc3[nH]cc(CCCN(C)C)c3c2)cc1` [Compound 3071, (E)-3-(3-(3-(dimethylamino)propyl)-1H-indol-5-yl)-N-(4-methoxybenzyl)acrylamide], the figures for the remaining activity at 10 µM on firefly luciferase (inhibitor 10 μM) and on Renilla luciferase (inhibitor 10 μM) were 101% and 57%, respectively. Further, the remaining activity at 100 µM was 101% at firefly luciferase (inhibitor 100 μM) and 15% on Renilla luciferase (inhibitor 100 μM). The remaining activity at 1000 µM at firefly luciferase (inhibitor 1000 μM) amounted to 100%; on Renilla luciferase (inhibitor 1000 μM), 2.5%. Further, the “inhibitor of Renilla luciferase” value on Renilla luciferase is recorded as “excellent inhibitors of Renilla luciferase”. The results for the “Selectivity Value” at Renilla luciferase (inhibitor 10 μM), at Renilla luciferase (inhibitor 100 μM) and on Renilla luciferase (inhibitor 1000 μM) were 1.8, 6.7 and 40, respectively.
